Measured values published in ChEMBL document CHEMBL5465560, “Selectivity Literature for EUbOPEN Chemogenomic Library” (2024).

What was measured:
[1] = target: T1, Serine/threonine-protein kinase TAO1 (Homo sapiens) (UniProt Q7L7X3); experiment: Selectivity interaction (KinomeScan (DiscoverX)) EUB0000229b TAOK1; conditions: at 10 µM
T1 sequence (whole entry): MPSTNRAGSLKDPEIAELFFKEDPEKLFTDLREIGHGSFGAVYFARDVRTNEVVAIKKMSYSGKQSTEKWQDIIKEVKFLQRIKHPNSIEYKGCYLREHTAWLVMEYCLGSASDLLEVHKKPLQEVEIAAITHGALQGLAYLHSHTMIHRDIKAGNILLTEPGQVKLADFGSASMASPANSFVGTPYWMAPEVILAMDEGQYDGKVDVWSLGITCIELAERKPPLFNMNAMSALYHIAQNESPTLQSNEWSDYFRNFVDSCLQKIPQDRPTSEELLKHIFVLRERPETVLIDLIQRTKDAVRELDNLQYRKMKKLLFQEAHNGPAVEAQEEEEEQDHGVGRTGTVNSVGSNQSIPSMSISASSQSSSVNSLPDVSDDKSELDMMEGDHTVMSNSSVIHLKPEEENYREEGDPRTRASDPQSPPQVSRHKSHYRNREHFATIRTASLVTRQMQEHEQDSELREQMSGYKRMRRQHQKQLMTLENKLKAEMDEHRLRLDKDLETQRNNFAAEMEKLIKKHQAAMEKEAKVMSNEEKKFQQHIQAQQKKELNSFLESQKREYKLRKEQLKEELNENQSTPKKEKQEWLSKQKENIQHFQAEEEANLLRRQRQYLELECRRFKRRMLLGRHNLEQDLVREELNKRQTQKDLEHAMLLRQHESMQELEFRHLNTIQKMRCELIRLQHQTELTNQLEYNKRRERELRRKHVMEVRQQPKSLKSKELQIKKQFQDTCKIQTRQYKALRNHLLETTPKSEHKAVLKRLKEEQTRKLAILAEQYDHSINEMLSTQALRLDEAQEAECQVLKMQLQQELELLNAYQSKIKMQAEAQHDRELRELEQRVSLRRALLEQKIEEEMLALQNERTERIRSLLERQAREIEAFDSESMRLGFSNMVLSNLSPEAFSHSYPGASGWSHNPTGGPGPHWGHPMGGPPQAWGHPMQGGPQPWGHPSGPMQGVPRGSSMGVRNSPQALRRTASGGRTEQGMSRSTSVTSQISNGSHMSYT

[2] = target: Calcium/calmodulin-dependent protein kinase type II subunit gamma (Homo sapiens) (UniProt Q13555); experiment: Selectivity interaction (KinomeScan (DiscoverX)) EUB0000045b CAMK2G
[3] = target: Protein arginine N-methyltransferase 5 (Homo sapiens, UniProt O14744); experiment: Selectivity interaction (Methyltransferase screen (radiometric assays, panel of 8 PRMTs, 21 protein lysine methyltransferases, 3 DNA methyltransferases, and one RNA methyltransferase)) EUB0000271b PRMT5
[4] = tested on: Epidermal growth factor receptor (Homo sapiens), P00533 [UNDEFINED MUTATION]; experiment: Selectivity interaction (KinomeScan (DiscoverX)) EUB0001619a EGFR; conditions: at 1 µM
[5] = target: Mitogen-activated protein kinase 14 (Homo sapiens, UniProt Q16539); experiment: Selectivity interaction (Enyzmatic assay) EUB0000601a MAPK14
[6] = target: Casein kinase I isoform gamma-2 (Homo sapiens) (UniProt P78368); experiment: Selectivity interaction (SelectScreen profiling (Invitrogen)) EUB0000607a CSNK1G2; conditions: at 2 µM
[7] = target: T2, NUAK family SNF1-like kinase 1 (Homo sapiens) (UniProt O60285); experiment: Selectivity interaction (Kinase panel (Invitrogen)) EUB0000639a NUAK1; conditions: at 200 nM
T2 sequence (whole entry): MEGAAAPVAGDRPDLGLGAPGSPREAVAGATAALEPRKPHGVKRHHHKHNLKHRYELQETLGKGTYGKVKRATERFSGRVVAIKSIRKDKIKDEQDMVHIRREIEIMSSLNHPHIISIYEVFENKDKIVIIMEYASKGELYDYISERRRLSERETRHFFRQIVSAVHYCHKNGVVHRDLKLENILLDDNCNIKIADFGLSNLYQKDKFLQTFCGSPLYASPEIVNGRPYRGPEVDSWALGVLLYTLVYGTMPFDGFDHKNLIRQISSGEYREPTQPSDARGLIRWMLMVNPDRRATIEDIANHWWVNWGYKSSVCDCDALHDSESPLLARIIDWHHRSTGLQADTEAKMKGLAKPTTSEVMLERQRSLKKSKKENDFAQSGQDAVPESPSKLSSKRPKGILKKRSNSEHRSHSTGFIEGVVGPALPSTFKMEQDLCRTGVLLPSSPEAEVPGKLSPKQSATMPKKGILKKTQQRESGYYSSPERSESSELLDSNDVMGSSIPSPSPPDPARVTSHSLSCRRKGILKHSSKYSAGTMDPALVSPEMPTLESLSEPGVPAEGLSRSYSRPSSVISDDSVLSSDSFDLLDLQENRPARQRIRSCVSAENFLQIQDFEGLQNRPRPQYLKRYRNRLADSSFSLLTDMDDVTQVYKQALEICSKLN

[8] = target: T3, Serine/threonine-protein kinase TBK1 (Homo sapiens) (UniProt Q9UHD2); experiment: Selectivity interaction (KinomeScan (DiscoverX)) EUB0000092b TBK1; conditions: at 10 µM
T3 sequence (whole entry): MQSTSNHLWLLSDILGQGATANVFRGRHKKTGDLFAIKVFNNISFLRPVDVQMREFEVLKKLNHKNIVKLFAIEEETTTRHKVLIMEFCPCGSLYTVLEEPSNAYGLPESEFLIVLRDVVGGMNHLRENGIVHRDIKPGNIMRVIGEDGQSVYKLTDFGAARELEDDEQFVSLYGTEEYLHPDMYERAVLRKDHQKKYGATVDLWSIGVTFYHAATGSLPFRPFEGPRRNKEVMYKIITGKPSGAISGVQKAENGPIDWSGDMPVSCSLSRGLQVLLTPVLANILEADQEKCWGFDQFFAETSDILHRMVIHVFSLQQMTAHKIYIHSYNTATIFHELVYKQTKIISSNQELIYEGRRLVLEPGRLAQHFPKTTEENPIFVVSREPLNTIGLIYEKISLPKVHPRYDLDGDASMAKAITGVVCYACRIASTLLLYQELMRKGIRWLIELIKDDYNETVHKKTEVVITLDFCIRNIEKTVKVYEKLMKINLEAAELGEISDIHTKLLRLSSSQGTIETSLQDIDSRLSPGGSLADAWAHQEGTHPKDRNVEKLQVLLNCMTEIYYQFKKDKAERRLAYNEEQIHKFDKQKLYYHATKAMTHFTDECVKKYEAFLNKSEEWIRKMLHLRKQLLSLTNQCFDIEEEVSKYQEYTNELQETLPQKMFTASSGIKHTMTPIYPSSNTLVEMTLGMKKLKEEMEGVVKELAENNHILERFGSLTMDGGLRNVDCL

Calcium/calmodulin-dependent protein kinase type II subunit gamma (Homo sapiens), sequence (Q13555 whole entry): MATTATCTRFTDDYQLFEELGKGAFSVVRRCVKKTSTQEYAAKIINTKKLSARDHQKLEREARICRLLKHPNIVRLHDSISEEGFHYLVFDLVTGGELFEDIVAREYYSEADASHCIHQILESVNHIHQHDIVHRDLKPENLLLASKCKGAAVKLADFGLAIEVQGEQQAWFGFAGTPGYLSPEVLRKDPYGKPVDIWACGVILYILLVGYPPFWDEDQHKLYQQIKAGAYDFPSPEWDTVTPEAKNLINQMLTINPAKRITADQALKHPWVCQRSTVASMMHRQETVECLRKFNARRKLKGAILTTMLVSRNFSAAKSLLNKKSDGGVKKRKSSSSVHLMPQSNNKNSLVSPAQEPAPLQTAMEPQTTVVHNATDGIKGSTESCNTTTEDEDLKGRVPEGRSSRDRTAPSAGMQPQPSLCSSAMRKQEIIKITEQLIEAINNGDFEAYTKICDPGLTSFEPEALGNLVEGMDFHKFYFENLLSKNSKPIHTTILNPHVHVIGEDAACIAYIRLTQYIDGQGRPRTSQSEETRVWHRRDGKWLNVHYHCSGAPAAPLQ
Protein arginine N-methyltransferase 5, sequence (O14744 whole entry): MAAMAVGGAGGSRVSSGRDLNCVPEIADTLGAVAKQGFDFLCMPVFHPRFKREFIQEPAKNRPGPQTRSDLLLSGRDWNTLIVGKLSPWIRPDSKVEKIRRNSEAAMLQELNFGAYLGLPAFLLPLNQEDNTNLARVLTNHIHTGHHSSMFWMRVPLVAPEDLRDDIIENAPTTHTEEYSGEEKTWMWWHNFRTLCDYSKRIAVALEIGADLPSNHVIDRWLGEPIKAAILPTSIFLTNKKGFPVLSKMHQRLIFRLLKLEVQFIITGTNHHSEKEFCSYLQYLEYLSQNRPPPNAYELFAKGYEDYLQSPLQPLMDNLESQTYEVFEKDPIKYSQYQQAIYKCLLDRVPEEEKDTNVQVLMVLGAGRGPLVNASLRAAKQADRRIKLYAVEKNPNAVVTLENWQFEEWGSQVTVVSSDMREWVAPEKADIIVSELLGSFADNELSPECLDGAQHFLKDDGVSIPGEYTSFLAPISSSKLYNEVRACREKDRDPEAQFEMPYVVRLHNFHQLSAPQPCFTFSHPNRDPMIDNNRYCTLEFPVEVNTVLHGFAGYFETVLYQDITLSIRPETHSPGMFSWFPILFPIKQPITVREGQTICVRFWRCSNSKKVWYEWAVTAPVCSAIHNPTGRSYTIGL
Epidermal growth factor receptor (Homo sapiens), P00533 [UNDEFINED MUTATION], sequence (P00533 whole entry, looked up, change not shown): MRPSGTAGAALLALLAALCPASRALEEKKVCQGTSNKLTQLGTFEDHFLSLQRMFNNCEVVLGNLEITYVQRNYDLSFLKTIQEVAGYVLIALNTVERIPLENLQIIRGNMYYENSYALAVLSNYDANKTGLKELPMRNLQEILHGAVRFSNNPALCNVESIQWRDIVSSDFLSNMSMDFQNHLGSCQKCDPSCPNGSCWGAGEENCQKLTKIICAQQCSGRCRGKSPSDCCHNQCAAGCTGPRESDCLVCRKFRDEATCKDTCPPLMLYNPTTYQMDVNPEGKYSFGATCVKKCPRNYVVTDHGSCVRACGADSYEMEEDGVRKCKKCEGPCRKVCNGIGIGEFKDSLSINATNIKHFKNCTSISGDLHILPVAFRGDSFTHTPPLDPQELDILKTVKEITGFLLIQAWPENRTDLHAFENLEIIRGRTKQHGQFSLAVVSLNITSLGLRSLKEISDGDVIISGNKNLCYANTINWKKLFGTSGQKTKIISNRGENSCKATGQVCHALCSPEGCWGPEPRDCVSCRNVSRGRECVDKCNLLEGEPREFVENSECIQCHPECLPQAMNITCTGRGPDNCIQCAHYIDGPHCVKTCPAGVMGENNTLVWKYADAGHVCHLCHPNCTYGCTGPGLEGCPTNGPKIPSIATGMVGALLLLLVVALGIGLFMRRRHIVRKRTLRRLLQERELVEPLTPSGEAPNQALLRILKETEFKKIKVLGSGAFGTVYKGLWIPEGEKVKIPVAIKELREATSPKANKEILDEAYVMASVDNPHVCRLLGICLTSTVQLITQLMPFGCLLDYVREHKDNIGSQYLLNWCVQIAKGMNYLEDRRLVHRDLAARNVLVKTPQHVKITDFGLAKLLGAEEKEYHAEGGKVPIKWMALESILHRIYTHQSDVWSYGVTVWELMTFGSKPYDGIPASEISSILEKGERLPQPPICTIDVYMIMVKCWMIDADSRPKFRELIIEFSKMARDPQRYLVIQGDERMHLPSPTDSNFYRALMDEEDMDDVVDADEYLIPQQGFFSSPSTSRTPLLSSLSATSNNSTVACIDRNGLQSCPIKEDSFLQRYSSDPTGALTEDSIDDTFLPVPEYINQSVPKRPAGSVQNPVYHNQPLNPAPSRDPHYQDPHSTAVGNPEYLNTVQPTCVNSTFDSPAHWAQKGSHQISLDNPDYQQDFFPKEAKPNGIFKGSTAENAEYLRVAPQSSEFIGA
Casein kinase I isoform gamma-2 (Homo sapiens), sequence (P78368 whole entry, looked up, canonical isoform): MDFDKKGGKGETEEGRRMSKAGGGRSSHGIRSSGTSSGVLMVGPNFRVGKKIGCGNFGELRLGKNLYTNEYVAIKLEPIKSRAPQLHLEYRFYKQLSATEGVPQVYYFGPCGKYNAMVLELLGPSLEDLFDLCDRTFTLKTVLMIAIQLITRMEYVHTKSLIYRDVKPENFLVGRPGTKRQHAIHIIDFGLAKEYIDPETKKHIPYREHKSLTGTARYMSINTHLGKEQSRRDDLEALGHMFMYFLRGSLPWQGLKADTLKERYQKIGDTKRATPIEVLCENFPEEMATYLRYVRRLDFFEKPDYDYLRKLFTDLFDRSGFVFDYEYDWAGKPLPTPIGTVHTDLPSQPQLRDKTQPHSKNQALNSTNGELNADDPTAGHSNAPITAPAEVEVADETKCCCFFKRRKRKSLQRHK
Mitogen-activated protein kinase 14, sequence (Q16539 whole entry, canonical isoform): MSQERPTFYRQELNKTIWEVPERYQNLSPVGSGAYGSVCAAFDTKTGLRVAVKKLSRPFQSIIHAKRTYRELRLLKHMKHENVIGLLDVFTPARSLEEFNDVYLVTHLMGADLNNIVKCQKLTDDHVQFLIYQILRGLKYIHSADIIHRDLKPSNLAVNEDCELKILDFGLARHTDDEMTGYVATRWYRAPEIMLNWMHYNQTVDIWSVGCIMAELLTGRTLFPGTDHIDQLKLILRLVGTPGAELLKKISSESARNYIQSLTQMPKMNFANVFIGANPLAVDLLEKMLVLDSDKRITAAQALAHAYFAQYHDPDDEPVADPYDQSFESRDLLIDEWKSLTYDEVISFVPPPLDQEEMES

**Q.** COc1cc(N(C)c2ccnc3ccc(C(F)(F)F)cc23)cc(OC)c1OC was tested. Which % binding [1] did it give?
**A.** The % binding was 65%.

**Q.** With C=CC(=O)Nc1cc(-n2c(=O)ccc3cnc4ccc(-c5ccc(NS(C)(=O)=O)cc5)cc4c32)ccc1C as the compound, how does the % of control ([2]; at 1 µM) read?
**A.** The % of control was 100%.

**Q.** What about the % of control ([2]; at 10 µM) of the same compound?
**A.** The % of control was 96%.

**Q.** Which results are given for Cc1cc(C)cc([C@@H]2c3cc(C)ccc3NC(=O)CN2C(=O)c2ccc(Br)s2)c1?
**A.** % of activity ([3]; at 1 µM): 102%; % of activity ([3]; at 10 µM): 100%

**Q.** For N#Cc1cccc(-c2c[nH]c3ncnc(N4CCOCC4)c23)c1, which % of control [4] is on record?
**A.** The % of control was 83%.

**Q.** CCc1cc(Nc2nccc(-c3c(-c4ccc(OC)c(C(=O)Nc5c(F)cccc5F)c4)nc4ccccn34)n2)c(OC)cc1N1CCC(N2CCN(S(C)(=O)=O)CC2)CC1 was tested. Which IC50 [5] did it give?
**A.** Its IC50 is > 10 µM.

**Q.** With CNC(=O)Nc1ccc(-c2nc(N3CC4CCC(C3)O4)c3cnn(C4CCC5(CC4)OCCO5)c3n2)cc1 as the compound, how does the % of inhibition [6] read?
**A.** Its % of inhibition is -6%.

**Q.** For CC[C@@H]1[C@H](F)C(=O)N[C@@H]1COc1nccc2cc(C(N)=O)c(OC)cc12 [ZIMLOVISERTIB], which % of inhibition [7] is on record?
**A.** Its % of inhibition is 2.96%.

**Q.** For CCC(=O)N1CCN(c2ccc(-n3c(=O)ccc4cnc5ccc(-c6cnc7ccccc7c6)cc5c43)cc2C(F)(F)F)CC1, which % of control [8] is on record?
**A.** The % of control was 93%.
